Assays:
E. coli bacteria = assay: Inhibition of bacterial growth in culture; format: cell-based; settings: E. coli incubated 5 and 24 hours at 37° C, streaked on LB-agar overnight
Procedure: Example 9 illustrates the anti-microbial effects of extracts including the active chemical agents on cells. A dried, powdered, formulation of a 1:1 mixture of the wheat grass extract and white willow bark extract prepared in Example 1 above was tested for its ability to inhibit bacterial growth in culture. The formulation was reconstituted in 10 ml of LB broth (Amersham Biosciences, Inc.). The broth was then inoculated with E. coli bacteria and incubated for 5 and 24 hours at 37° C. 20 μl of the cultures were streaked on LB-agar plates and incubated overnight at 37° C. […] An additional control experiment was conducted with the known antibacterial agent, SNAP. One μg/ml SNAP was added to LB broth. The broth was then inoculated with E. coli bacteria and incubated for 5 and 24 hours at 37° C. 20 μl of the cultures were streaked on LB-agar plates and incubated overnight at 37° C. Bacterial growth was decreased in the SNAP culture at 5 and 24 hours, as compared to the control.

[1] = tested on: SK-N-MC (ATCC # HBT-10) cells; assay: NO determination of SK-N-MC cells treated with plant extractions; format: cell-based; settings: 6 mg of crude extraction
Procedure: Employing the isolation and purification techniques described above, a variety of herbaceous plants were analyzed for their ability to release cNOS—derived nitric oxide in the pedal ganglia and in publicly available SK-N-MC (ATCC # HBT-10) and PC-12 (ATCC # CRL 1721) cells. In Table I, a plus sign indicates detection of at least 1 nM nitric oxide. […] In Table II, results in the SK-N-MC cell line are set forth; the concentration of plant material used and the quantity of NO detected is indicated. […] In Table III, results are set forth for the identical procedures performed using the ganglia cell line. The types of plant materials employed are indicated, for example flowers, leaves, roots, rhizomes, stems, bark. Where not specified, leaves were employed.

Structure (SMILES) | bacterial growth versus control (LB broth alone) (E. coli bacteria) | Results (nM), NO determination of SK-N-MC cells [1] [nM]
CC(=O)NC(C(=O)O)C(C)(C)SN=O (racemic) [SNAP, S-nitroso-N-acetyl-DL-penicillamine] | decreased | –
O=c1c(O)c(-c2ccc(O)c(O)c2)oc2cc(O)cc(O)c12 [Quercetine] | – | 14
